For one data set, the system named is MDCK cells. The settings on record: Example 10; for CC50: read-out: TC50, MDCK cells.
Data set [1] deals with influenza A/Puerto Rico/8/34 (H1N1). It is filed as in vivo, BALB/c mice. The settings on record: for effect on bodyweight / bodyweight loss: SC, investigated doses, FIG. 7A; for lung viral titre (TCID50 on MDCK cells): Day 3 and Day 6, Lefamulin at both doses, compared with vehicle treated control.
The subject of data set [2] is MRC-5 cells. The experiment in a line: Cell viability of uninfected drug control wells, MRC-5 cells, XTT. The settings on record: Example 1; for cytotoxic effect on the viability of the cell control: concentration 10 μM (b103 prints 10 M for Lefamulin); for cytotoxic effect: concentration 50 μM. In general terms: Tetrazolium dyes change colour on reduction, which living cells bring about.

Another data set has as its system Huh7 cells. Nature of the data set: Cell viability, Huh7 cells, XTT.
A further data set deals with HEp2 cells. The experiment in a line: Cell viability of uninfected drug control wells, HEp2 cells, XTT. The settings on record: Example 3.
The subject of data set [3] is human rhinovirus strain HRV16 strain 11757. Nature of the data set: Inhibition of virus-induced CPE, human rhinovirus in H1-HeLa cells. It is filed as cell-based. The settings on record: Example 9, rhinovirus HRV1611757, 4 h pretreatment, MOI 0.0005. As for the experimental part: Cell viability determination as well as EC50 and TC50 calculations were performed as described in Examples 1 and 3.

In a further data set the test system is HeLa cells. Nature of the data set: Cell viability, HeLa cells, XTT. To be noted: read-out: TC50, Example 6.
The test system of data set [4] is influenza virus strain A/PR/8/34. The experiment in a line: Inhibition of virus-induced CPE, influenza virus in MDCK cells. It is filed as cell-based.
Data set [5] concerns herpes simplex type 1 (HSV-1) virus. To be noted: cited from earlier work.
Data set [6] has as its system influenza A virus strain (PR8). The settings on record: concentration of 2 mg/mL; cited from earlier work.
Data set [7] concerns vesicular stomatitis virus (VSV). The settings on record: cited from earlier work.
Another data set concerns polio virus. The settings on record: cited from earlier work.
Data set [8] relates to MRC-5 cells. To be noted: human.
Data set [9] deals with Measles virus strain Edmonston. Nature of the data set: microbe, parasite or virus in culture. It is filed as cell-based. To be noted: Measles morbillivirus, HeLa.
Data set [10] concerns influenza A virus, porcine reproductive and respiratory syndrome virus (PRRSV) type 1 and 2. The settings on record: WO 2009/106839; 4 hours post inoculation; cited from earlier work.
Where [11] appears, read: high dose: 105 mg/kg/day SC in three injections until day 3, then 70 mg/kg twice daily.
Where [12] appears, read: read-out: TC50, Example 8, Zika experiment.

Values after ≈ are worked out from the molar mass of the structure shown. Where two headings read alike, the source gives them in different places. A value given as a limit tells only on which side of the number the result lay.

The values below come from patent US20230218558A1, “NOVEL THERAPEUTIC USE OF PLEUROMUTILINS” (priority 2020, published 2023).

Take `C=C[C@]1(C)C[C@@H](OC(=O)CS[C@@H]2CC[C@@H](N)C[C@H]2O)[C@]2(C)C(C)CC[C@]3(CCC(=O)[C@H]32)[C@@H](C)[C@@H]1O` (stereo partly drawn) [Lefamulin, 14-O-{[(1R, 2R, 4R)-4-amino-2-hydroxy-cyclohexylsulfanyl]-acetyl}-mutilin]: the “concentrations cytotoxic to MDCK cells” value in the data set with MDCK cells is listed as “greater than 23 μM”. In addition, the CC50 is 23.8 µM in the data set on MDCK cells; 23.3 µM with Huh7 cells (read-out: TC50, Example 7, Dengue experiment); 23.4 µM in the data set with Huh7 cells (setting [12]); 72.7 µM in the data set on HeLa cells. The “effect on bodyweight / bodyweight loss” value in data set [1] (BALB/c mice) was “did not have a significant effect”. In [1], the “lung viral titre (TCID50 on MDCK cells)” value is “reduced lung viral titres”. Moreover, the “clinical scores compared to vehicle” value in data set [1] (setting [11]) is “increase in clinical scores”. For the same molecule, the “survival compared to vehicle” value in data set [1] (setting [11]) is on record as “decrease in survival”. Also, the “bronchial degeneration and alveolar inflammation (histopathology)” value in data set [1] (high dose, Day 6 lungs, compared to vehicle) was “significant reduction”. Moreover, in data set [1] (high dose, Day 6 lungs, compared to vehicle treated control), the overall histopathology score entry is listed as “overall significant reduction”. In data set [1] (lower dose: 35 mg/kg SC twice daily (70 mg/kg/day), until day 6), this molecule displayed a survival of 90%. The “cytotoxic effect on the viability of the cell control” value in the data set with MRC-5 cells [2] is given as “no cytotoxic effect”; in the data set with HEp2 cells (concentrations 10 μM and 50 μM), “no cytotoxic effect”. Besides, the cytotoxic effect result with MRC-5 cells [2] and in the data set with HEp2 cells (concentration 100 μM) was “cytotoxic effect” in each case. This molecule displayed a TC50 in the data set on MRC-5 cells [2] (uninfected MRC-5 cells, 6 days) of 55.3 µM. The EC50 in data set [3] is 9.34 µM; in data set [4] it was greater than 23.8 µM.

As to `CCOC(=O)C1=C[C@@H](OC(CC)CC)[C@H](NC(C)=O)[C@@H](N)C1` [Oseltamivir], the CC50 in the data set on MDCK cells was greater than 200 µM. In data set [1] (BALB/c mice), the “effect on bodyweight / bodyweight loss” value is reported as “reduction”. In [1] (BALB/c mice, positive control treatment, FIG. 7B), the clinical scores entry is “reduction”. Besides, the “lung viral titre (TCID50 on MDCK cells)” value in data set [1] was “reduced lung viral titres”. The same molecule yielded an EC50 in data set [4] of 0.06 µM.

As for `C=C[C@]1(C)C[C@@H](OC(=O)CO)[C@]2(C)[C@H](C)CC[C@]3(CCC(=O)[C@H]32)[C@@H](C)[C@@H]1O` [Pleuromutilin], the “concentration that conferred a 50% protection of the cytopathic effect induced by HSV-1 (CPE50)” value in data set [5] is 15 µg/mL. Also, the EC50 in [5] (read-out: concentration that conferred a 50% protection of the cytopathic effect induced by HSV-1 (CPE50)) is 40 µM. The antiviral activity result in [6] was “antiviral activity”; in the data set with polio virus, “did not show antiviral activity”. The “activity against vesicular stomatitis virus” value in data set [7] is “activity”.

In the data set on MRC-5 cells [8], `CCC(CC)COC(=O)[C@H](C)N[P@](=O)(OC[C@H]1O[C@@](C#N)(c2ccc3c(N)ncnn23)[C@H](O)[C@@H]1O)Oc1ccccc1` [Remdesivir] displayed a CC50 greater than 5 µM.

`NC(=O)c1ncn([C@@H]2O[C@H](CO)[C@@H](O)[C@H]2O)n1` [Ribavirin] had an EC50 in data set [9] of 1.88 µg/mL (≈ 7.7 µM).

Regarding `CCOC(=O)/C=C/[C@H](C[C@@H]1CCNC1=O)NC(=O)[C@@H](CC(=O)[C@@H](NC(=O)c1cc(C)on1)C(C)C)Cc1ccc(F)cc1` [Rupintrivir], the EC50 in data set [3] stood at 0.0049 µM.

For the molecule `CC(C)OC(=O)[C@H](C)N[P@](=O)(OC[C@H]1O[C@@H](n2ccc(=O)[nH]c2=O)[C@](C)(F)[C@@H]1O)Oc1ccccc1` [Sofosbuvir], the CC50 with Huh7 cells (setting [12]) is greater than 10 µM.

In the case of `C=C[C@]1(C)C[C@@H](OC(=O)CSCCN(CC)CC)[C@]2(C)[C@H](C)CC[C@]3(CCC(=O)[C@H]32)[C@@H](C)[C@@H]1O` [Tiamulin], in the data set on MRC-5 cells [8] (6 days), the CC50 is 62.9 µM. Further, in the data set on MRC-5 cells [2], the “cytotoxic effect on the viability of the cell control” value is on record as “no cytotoxic effect was observed” and the cytotoxic effect result was “a cytotoxic effect was observed”. Moreover, in the data set on HEp2 cells (concentration 10 μM), the viability came out at 84%. In the data set on HEp2 cells (concentration 50 μM), this molecule had a viability of 70.0%.

As to `C=C[C@]1(C)C[C@@H](OC(=O)CSC(C)(C)CNC(=O)[C@H](N)C(C)C)[C@]2(C)[C@H](C)CC[C@]3(CCC(=O)[C@H]32)[C@@H](C)[C@@H]1O` [Valnemulin], the antiviral activity entry in data set [10] is listed as “did not exhibit antiviral activity”.

In general, viability refers to the share of living cells, or the viability signal relative to a control. Read a high viability as better survival.
